Source: ChEMBL document CHEMBL5620359, “Discovery of 2,5-disubstituted furan derivatives featuring a benzamide motif for overcoming P-glycoprotein mediated multidrug resistance in MCF-7/ADR cell” (Eur J Med Chem, 2023)
Calls of active or inactive are those of the source. No cut-off for these calls is given here.

How the values were obtained:
NCI/ADR-RES [1] = assay: Cytotoxicity against human MCF7ADR cells assessed as cell survival rate at 5 uM incubated for 48 hrs by CCK8 assay relative to control; type: functional
NCI/ADR-RES [2] = assay: Cytotoxicity against human MCF7ADR cells assessed as cell survival rate at 1 uM incubated for 48 hrs by CCK8 assay relative to control; type: functional
MCF7 [3] = assay: Antitumor activity against human MCF7 cells incubated for 48 hrs by CCK8 assay; type: functional, cell-based; conditions: MCF7, 48 h
[4] = Toxicity in nude BALB/c mouse xenografted with human MCF7ADR cells assessed as increase in nuclear density in kidney at 3 mg/kg, ip for 14 days administered every 2 days by H and E staining based analysis; type: organism-based; conditions: in vivo, 336 h, time 14 day
[5] = Toxicity in nude BALB/c mouse xenografted with human MCF7ADR cells assessed as reduction in spleen volume at 3 mg/kg, ip for 14 days administered every 2 days by H and E staining based analysis; type: organism-based; conditions: in vivo, 336 h, time 14 day
[6] = Toxicity in nude BALB/c mouse xenografted with human MCF7ADR cells assessed as increase in nuclear density in liver at 3 mg/kg, ip for 14 days administered every 2 days by H and E staining based analysis; type: organism-based; conditions: in vivo, 336 h, time 14 day
[7] = Toxicity in nude BALB/c mouse xenografted with human MCF7ADR cells assessed as reduction in liver volume at 3 mg/kg, ip for 14 days administered every 2 days by H and E staining based analysis; type: organism-based; conditions: in vivo, 336 h, time 14 day
[8] = Toxicity in nude BALB/c mouse xenografted with human MCF7ADR cells assessed as hyperplasia in spleen at 3 mg/kg, ip for 14 days administered every 2 days by H and E staining based analysis; type: organism-based; conditions: in vivo, 336 h, time 14 day
[9] = Toxicity in nude BALB/c mouse xenografted with human MCF7ADR cells assessed as body weight loss at 3 mg/kg, ip for 14 days administered every 2 days; type: organism-based; conditions: in vivo, 336 h, time 14 day
[10] = Toxicity in nude BALB/c mouse xenografted with human MCF7ADR cells assessed as pathological change in spleen at 3 mg/kg, ip for 14 days administered every 2 days by H and E staining based analysis; type: organism-based; conditions: in vivo, 336 h, time 14 day
NCI/ADR-RES [11] = assay: Reversal activity against doxorubicin-mediated resistance in human MCF7ADR cells assessed as reversal fold by measuring ratio of doxorubicin IC50 to doxorubicin IC50 in presence of test compound at 1 uM incubated for 48 hrs by CCK8 assay; type: functional
[12] = Toxicity in nude BALB/c mouse xenografted with human MCF7ADR cells assessed as body weight loss at 10 mg/kg, ip for 14 days administered every 2 days in presence of doxorubicin; type: organism-based; conditions: in vivo, 336 h, time 14 day
[13] = biological target: T1, ATP-dependent translocase ABCB1 (Homo sapiens, UniProt P08183); assay: Inhibition of P-gp in human MCF7ADR cells assessed as increase in Rh123 accumulation at 0.1 to 10 uM incubated for 4 hrs by flow cytometry; type: cell-based; conditions: dose 0.1-10 µM
T1 sequence (P08183 whole entry): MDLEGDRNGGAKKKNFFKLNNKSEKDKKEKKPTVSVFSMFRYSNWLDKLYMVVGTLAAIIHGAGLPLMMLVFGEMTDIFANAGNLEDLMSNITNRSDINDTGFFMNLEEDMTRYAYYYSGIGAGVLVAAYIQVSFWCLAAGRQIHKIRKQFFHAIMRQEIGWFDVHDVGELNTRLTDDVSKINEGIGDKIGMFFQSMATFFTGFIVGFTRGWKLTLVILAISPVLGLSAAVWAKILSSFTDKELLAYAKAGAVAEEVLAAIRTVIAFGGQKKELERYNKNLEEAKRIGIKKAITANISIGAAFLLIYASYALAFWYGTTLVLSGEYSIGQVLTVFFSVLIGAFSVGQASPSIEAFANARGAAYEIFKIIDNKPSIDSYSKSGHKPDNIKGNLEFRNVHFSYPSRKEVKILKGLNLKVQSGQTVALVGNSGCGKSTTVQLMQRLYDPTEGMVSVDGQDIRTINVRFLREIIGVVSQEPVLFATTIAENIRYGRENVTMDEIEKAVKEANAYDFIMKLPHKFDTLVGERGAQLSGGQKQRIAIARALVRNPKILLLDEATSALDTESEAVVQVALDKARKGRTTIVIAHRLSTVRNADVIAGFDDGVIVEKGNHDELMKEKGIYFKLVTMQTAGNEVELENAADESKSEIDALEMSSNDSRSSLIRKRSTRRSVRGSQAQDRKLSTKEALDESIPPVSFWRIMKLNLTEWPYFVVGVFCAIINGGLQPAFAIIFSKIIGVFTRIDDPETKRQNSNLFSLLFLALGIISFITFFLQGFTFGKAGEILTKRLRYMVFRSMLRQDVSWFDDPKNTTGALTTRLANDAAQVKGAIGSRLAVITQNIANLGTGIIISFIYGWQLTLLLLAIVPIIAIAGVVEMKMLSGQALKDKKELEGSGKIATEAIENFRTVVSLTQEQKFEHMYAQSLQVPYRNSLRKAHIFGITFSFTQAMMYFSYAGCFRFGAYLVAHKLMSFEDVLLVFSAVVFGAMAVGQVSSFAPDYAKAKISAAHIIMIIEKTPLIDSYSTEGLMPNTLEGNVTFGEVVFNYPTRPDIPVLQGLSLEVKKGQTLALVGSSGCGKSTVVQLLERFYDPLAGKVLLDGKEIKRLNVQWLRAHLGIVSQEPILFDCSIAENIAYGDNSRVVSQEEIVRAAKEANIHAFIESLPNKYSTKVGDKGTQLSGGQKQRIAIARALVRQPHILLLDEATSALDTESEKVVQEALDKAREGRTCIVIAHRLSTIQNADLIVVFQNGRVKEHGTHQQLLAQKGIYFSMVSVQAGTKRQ

NCI/ADR-RES [14] = assay: Reversal activity against paclitaxel-mediated resistance in human MCF7ADR cells assessed as reversal fold by measuring ratio of paclitaxel IC50 to paclitaxel IC50 in presence of test compound at 5 uM incubated for 48 hrs by CCK8 assay; type: functional
NCI/ADR-RES [15] = assay: Antitumor activity against human MCF7ADR cells xenografted in nude BALB/c mouse assessed as tumor size reduction at 10 mg/kg, ip for 14 days administered every 2 days; type: functional, organism-based; conditions: time 14.0 day
[16] = Toxicity in nude BALB/c mouse xenografted with human MCF7ADR cells assessed as morphological change in spleen at 10 mg/kg, ip for 14 days administered every 2 days by H and E staining based analysis; type: organism-based; conditions: in vivo, 336 h, time 14 day
[17] = Toxicity in nude BALB/c mouse xenografted with human MCF7ADR cells assessed as morphological change in kidney at 10 mg/kg, ip for 14 days administered every 2 days by H and E staining based analysis; type: organism-based; conditions: in vivo, 336 h, time 14 day
MCF7 [18] = assay: Cytotoxicity against human MCF7 cells assessed as cell survival rate at 5 uM incubated for 48 hrs by CCK8 assay relative to control; type: functional
NCI/ADR-RES [19] = assay: Reversal activity against doxorubicin-mediated resistance in 3D spheroid model of human MCF7ADR cells assessed as reduction in tumor spheroid volume at 5 uM incubated for 9 days by inverted microscopy; type: functional, cell-based; conditions: time 9.0 day
NCI/ADR-RES [20] = assay: Antitumor activity against human MCF7ADR cells xenografted in nude BALB/c mouse assessed as tumor weight reduction at 10 mg/kg, ip for 14 days administered every 2 days; type: functional, organism-based; conditions: time 14.0 day
[21] = Toxicity in nude BALB/c mouse xenografted with human MCF7ADR cells assessed as body weight loss at 10 mg/kg, ip for 14 days administered every 2 days; type: organism-based; conditions: in vivo, 336 h, time 14 day
[22] = Toxicity in nude BALB/c mouse xenografted with human MCF7ADR cells assessed as morphological change in liver at 10 mg/kg, ip for 14 days administered every 2 days by H and E staining based analysis; type: organism-based; conditions: in vivo, 336 h, time 14 day
NCI/ADR-RES [23] = assay: Reversal activity against daunorubicin-mediated resistance in human MCF7ADR cells assessed as reversal fold by measuring ratio of daunorubicin IC50 to daunorubicin IC50 in presence of test compound at 5 uM incubated for 48 hrs by CCK8 assay; type: functional
NCI/ADR-RES [24] = assay: Downregulation of P-gp expression in human MCF7ADR cells at 0.1 to 10 uM incubated for 48 hrs by Western blot analysis; type: functional, cell-based; conditions: dose 0.1-10 µM
[25] = Toxicity in nude BALB/c mouse xenografted with human MCF7ADR cells assessed as morphological change in lung at 10 mg/kg, ip for 14 days administered every 2 days by H and E staining based analysis; type: organism-based; conditions: in vivo, 336 h, time 14 day
NCI/ADR-RES [26] = assay: Reversal activity against doxorubicin-mediated resistance in human MCF7ADR cells assessed as reversal fold by measuring ratio of doxorubicin IC50 to doxorubicin IC50 in presence of test compound at 0.5 uM incubated for 48 hrs by CCK8 assay; type: functional
NCI/ADR-RES [27] = assay: Reversal activity against doxorubicin-mediated resistance in human MCF7ADR cells assessed as reversal fold by measuring ratio of doxorubicin IC50 to doxorubicin IC50 in presence of test compound at 0.1 uM incubated for 48 hrs by CCK8 assay; type: functional
[28] = biological target: T1, ATP-dependent translocase ABCB1; assay: Inhibition of P-gp in human MCF7ADR cells assessed as increase in Rh123 accumulation at 0.1 to 10 uM incubated for 4 hrs by fluorescence microscopy; type: cell-based; conditions: dose 0.1-10 µM
NCI/ADR-RES [29] = assay: Antitumor activity against human MCF7ADR cells xenografted in nude BALB/c mouse assessed as tumor volume reduction at 10 mg/kg, ip for 14 days administered every 2 days; type: functional, organism-based; conditions: time 14.0 day
NCI/ADR-RES [30] = assay: Reversal activity against vincristine-mediated resistance in human MCF7ADR cells assessed as reversal fold by measuring ratio of vincristine IC50 to vincristine IC50 in presence of test compound at 5 uM incubated for 48 hrs by CCK8 assay; type: functional
NCI/ADR-RES [31] = assay: Reversal activity against doxorubicin-mediated resistance in human MCF7ADR cells xenografted in nude BALB/c mouse at 10 mg/kg, ip for 14 days administered every 2 days; type: functional, organism-based; conditions: time 14.0 day
NCI/ADR-RES [32] = assay: Reversal activity against doxorubicin-mediated resistance in human MCF7ADR cells assessed as reversal fold by measuring ratio of doxorubicin IC50 to doxorubicin IC50 in presence of test compound at 5 uM incubated for 48 hrs by CCK8 assay; type: functional
[33] = Toxicity in nude BALB/c mouse xenografted with human MCF7ADR cells assessed as morphological change in heart at 10 mg/kg, ip for 14 days administered every 2 days by H and E staining based analysis; type: organism-based; conditions: in vivo, 336 h, time 14 day

## COc1cc2c(cc1OC)CN(C(=O)c1ccc(-c3ccc(NC(=O)c4ccco4)cc3)o1)CC2
NCI/ADR-RES [1]
  Activity: 11.3%
NCI/ADR-RES [2]
  Activity: 80.6%

## CC[C@]1(O)C[C@H]2CN(CCc3c([nH]c4ccccc34)[C@@](C(=O)OC)(c3cc4c(cc3OC)N(C=O)[C@H]3[C@@](O)(C(=O)OC)[C@H](OC(C)=O)[C@]5(CC)C=CCN6CC[C@]43[C@@H]65)C2)C1 [VINCRISTINE]
MCF7 [3]
  IC50: 900 nM

## COc1cc2c(cc1OC)CN(C(=O)c1ccc(-c3ccc(NC(=O)c4cccs4)cc3)o1)CC2
NCI/ADR-RES [1]
  Activity: 26%
NCI/ADR-RES [2]
  Activity: 92.3%

## COc1cccc2c1C(=O)c1c(O)c3c(c(O)c1C2=O)C[C@@](O)(C(=O)CO)C[C@@H]3O[C@H]1C[C@H](N)[C@H](O)[C@H](C)O1 [DOXORUBICIN]
[4]
  Activity: Toxic
[5]
  Activity: Toxic
[6]
  Activity: Toxic
[7]
  Activity: Toxic
[8]
  Activity: Toxic
[9]
  Activity: Toxic
[10]
  Activity: Toxic

## CC(=O)O[C@H]1C(=O)[C@@]2(C)[C@H]([C@H](OC(=O)c3ccccc3)[C@]3(O)C[C@H](OC(=O)[C@H](O)[C@@H](NC(=O)c4ccccc4)c4ccccc4)C(C)=C1C3(C)C)[C@]1(OC(C)=O)CO[C@@H]1C[C@@H]2O [PACLITAXEL]
MCF7 [3]
  IC50: 550 nM

## COc1cc2c(cc1OC)CN(C(=O)c1ccc(-c3ccc(NC(=O)c4cccnc4)cc3)o1)CC2
NCI/ADR-RES [11]
  fold change (FC): 2.2
NCI/ADR-RES [1]
  Activity: 14.7%
NCI/ADR-RES [2]
  Activity: 72.4%

## COc1cccc2c1C(=O)c1c(O)c3c(c(O)c1C2=O)C[C@@](O)(C(C)=O)C[C@@H]3O[C@H]1C[C@H](N)[C@H](O)[C@H](C)O1 [DAUNORUBICIN]
MCF7 [3]
  IC50: 980 nM

## COc1ccc(C(=O)Nc2ccc(-c3ccc(C(=O)N4CCc5cc(OC)c(OC)cc5C4)o3)cc2)cc1
[12]
  Activity: Toxic
[13]
  inhibition (INH): Dose-Dependent Effect
NCI/ADR-RES [14]
  fold change (FC): 158.6
NCI/ADR-RES [15]
  Activity: inactive
[16]
  Activity: Non-Toxic
[17]
  Activity: Non-Toxic
MCF7 [18]
  Activity: 80.4%
NCI/ADR-RES [11]
  fold change (FC): 110.5
NCI/ADR-RES [19]
  Activity: Active
NCI/ADR-RES [1]
  Activity: 80.1%
NCI/ADR-RES [20]
  Activity: inactive
[21]
  Activity: Non-Toxic
[22]
  Activity: Non-Toxic
NCI/ADR-RES [23]
  fold change (FC): 143.4
NCI/ADR-RES [24]
  Activity: inactive
[25]
  Activity: Non-Toxic
NCI/ADR-RES [26]
  fold change (FC): 8.8
NCI/ADR-RES [27]
  fold change (FC): 3.3
[28]
  inhibition (INH): Dose-Dependent Effect
NCI/ADR-RES [29]
  Activity: inactive
NCI/ADR-RES [30]
  fold change (FC): 18.9
NCI/ADR-RES [31]
  Activity: Active
NCI/ADR-RES [32]
  fold change (FC): 565
[33]
  Activity: Non-Toxic
